Data published in US10793557B2, “Sting agonist compounds” (Merck Sharp & Dohme Corp., priority 2018, dated 2020).

Experiments:
full-length HAQ STING = target: T1, full-length HAQ STING (Homo sapiens, UniProt Q86WV6, G230A/H232R/R293Q/R71H); assay: 3H-cGAMP filtration binding assay (HAQ STING); details: for EC50: competition with tritiated cGAMP, HAQ STING membrane
T1 construct: AviTag (after GG linker) (C); HRV3C cleavage site (after GS linker) (C); HIS8 (C); made in house; host or cells: Trichoplusia ni (Hi-Five) insect cells infected with baculovirus (virus generated and amplified in Sf21 cells); used as a washed membrane preparation
In short: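 Hi-Five (T. ni) membranes overexpressing the STING variant (2.2 ug/ml working) preincubated with compound 60 min at RT in PBS, then [3H]cGAMP (8 nM working stock) added for 60 min at RT. Bound radioactivity captured on GF/B filters and counted by scintillation; EC50 from 4-parameter fit of control-normalized activity.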

[1] = tested on: secretion of interferon-beta from THP1 cells; assay: IFN-β secretion in THP1 cell culture (5 h); assay type: cell-based; details: Homo sapiens, THP-1, 5 h, 30 uM cGAMP = 100%; for activation at 30 µM: compound at 30 μM, read-out: % Effect at 30 μM relative to 2′3′-cGAMP; for activation at 3 µM: compound at 3 uM, read-out: % Effect relative to 2′3′-cGAMP (@ 3 uM)
In short: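 Thawed THP1 cells (0.8×10^6/mL, RPMI with 0.5% FBS) exposed to compounds 1.5–30000 nM (0.3% DMSO) for 5 h at 37 °C. Supernatant IFN-β quantified by AlphaLISA. Percent effect normalised to 30 uM cGAMP and DMSO controls; EC50 from 4-parameter fit.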

full-length WT STING = target: T2, full-length WT STING (Homo sapiens, UniProt Q86WV6, H232R); assay: 3H-cGAMP filtration binding assay (WT STING); details: for EC50: competition with tritiated cGAMP, WT STING membrane; for inhibition at 2 µM: at 2,000 nM compound
T2 construct: AviTag (after gg linker) (C); HRV3C cleavage site (after gs linker) (C); HIS8 (C); made in house; host or cells: Trichoplusia ni (Hi-Five) insect cells infected with baculovirus (virus generated and amplified in Sf21 cells); used as a washed membrane preparation
In short: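 Competitive filtration binding of [3H]cGAMP (16 nM working stock) to T. ni membranes overexpressing full-length WT human STING, 60 min at RT in PBS. Bound radioactivity counted after GF/B filtration; 10-point 1:3 titration, EC50 from 4-parameter fit after control normalisation.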

T2 sequence (Q86WV6 with tags, fused parts or gaps H232R): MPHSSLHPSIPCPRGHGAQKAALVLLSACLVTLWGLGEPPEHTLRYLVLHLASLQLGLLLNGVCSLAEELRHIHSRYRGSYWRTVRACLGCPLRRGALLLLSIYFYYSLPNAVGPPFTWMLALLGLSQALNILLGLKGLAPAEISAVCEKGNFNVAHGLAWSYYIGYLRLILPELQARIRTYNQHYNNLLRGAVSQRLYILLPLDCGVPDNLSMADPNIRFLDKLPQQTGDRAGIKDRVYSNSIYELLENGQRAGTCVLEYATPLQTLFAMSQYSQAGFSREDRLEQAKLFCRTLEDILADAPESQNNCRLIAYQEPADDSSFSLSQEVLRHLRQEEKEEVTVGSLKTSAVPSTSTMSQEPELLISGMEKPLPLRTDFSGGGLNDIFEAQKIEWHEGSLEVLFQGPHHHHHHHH
T1 sequence (Q86WV6 with tags, fused parts or gaps R71H/G230A/H232R/R293Q): as the sequence (Q86WV6 with tags, fused parts or gaps H232R) above, with R71H, G230A, R293Q counted along it

Structure (SMILES)	EC50 (full-length HAQ STING) [nM]	activation at 30 µM [1] [%]	EC50 (full-length WT STING) [nM]	activation at 3 µM [1] [%]	inhibition at 2 µM (full-length WT STING) [%]	inhibition at 2 µM (full-length HAQ STING; at 2,000 nM compound) [%]
COc1cc2sc(C(=O)CCC(=O)O)cc2cc1OCCOc1c(OC)cc2sc(C(=O)C[C@H](C)C(=O)O)cc2c1F [Example 34, (S)-4-(5-(2-((2-(3-carboxypropanoyl)-6-methoxybenzo [b]thiophen-5-yl)oxy)ethoxy)-4-fluoro-6-methoxybenzo[b]thiophen-2-yl)-2-methyl-4-oxobutanoic acid]	3	72	4			
COc1cc2sc(CC[C@H](C)C(=O)O)cc2c(F)c1OCCCCOc1c(OC)cc2sc(C(=O)C[C@H](C)C(=O)O)cc2c1F [Example 124, (S)-4-(5-(4-((2-((S)-3-carboxybutyl)-4-fluoro-6-methoxybenzo[b]thiophen-5-yl)oxy)butoxy)-4-fluoro-6-methoxybenzo[b]thiophen-2-yl)-2-methyl-4-oxobutanoic acid]	263		3060	45		
COc1cc2sc(C(=O)C[C@H](C)C(=O)O)cc2c(F)c1CCCOc1c(OC)cc2sc(C(=O)[C@@H]3CC3C(=O)O)cc2c1F (stereo partly drawn) [Example 106, trans-2-(5-(3-(2-((S)-3-carboxybutanoyl)-4-fluoro-6-methoxybenzo[b]thiophen-5-yl)propoxy)-4-fluoro-6-methoxybenzo[b]thiophene-2-carbonyl)cyclopropane carboxylic acid]	10	74	251			
COc1cc2sc(C(=O)CCC(=O)O)cc2c(F)c1OCCCOc1c(OC)cc2sc(C(=O)C[C@H](C)C(=O)O)cc2c1F [Example 64, (S)-4-(5-(3-((2-(3-carboxypropanoyl)-4-fluoro-6-methoxybenzo[b]thiophen-5-yl)oxy)propoxy)-4-fluoro-6-methoxybenzo[b]thiophen-2-yl)-2-methyl-4-oxobutanoic acid]	2	58	4			
COc1cc2sc(C(=O)C[C@H](C)C(=O)O)cc2cc1CCOc1cc2cc(C(=O)C[C@H](C)C(=O)O)sc2cc1OC [Example 42, (S)-4-(5-(2-(2-((S)-3-carboxybutanoyl)-6-methoxybenzo[b]thiophen-5-yl)ethoxy)-6-methoxybenzo[b]thiophen-2-yl)-2-methyl-4-oxobutanoic acid]	6	67	12			
COc1cc2sc(C(=O)C[C@H](C)C(=O)O)cc2cc1NCCCOc1c(OC)cc2sc(C(=O)C[C@H](C)C(=O)O)cc2c1F [Example 176, (S)-4-(5-((3-((2-((S)-3-Carboxybutanoyl)-4-fluoro-6-methoxybenzo [b]thiophen-5-yl)oxy)propyl)amino)-6-methoxybenzo[b]thiophen-2-yl)-2-methyl-4-oxobutanoic acid]	1	44	2			
COc1cc2sc(CC[C@H](C)C(=O)O)cc2c(Cl)c1OCCOc1c(OC)cc2sc(C(=O)C[C@H](C)C(=O)O)cc2c1Cl [Example 154, (S)-4-(5-(2-((2-((S)-3-carboxybutyl)-4-chloro-6-methoxybenzo[b]thiophen-5-yl)oxy)ethoxy)-4-chloro-6-methoxybenzo[b]thiophen-2-yl)-2-methyl-4-oxobutanoic acid]	694			76	30	
COc1cc2sc(C(=O)C[C@H](C)C(=O)O)cc2c(F)c1OCC1(COc2c(OC)cc3sc(C(=O)C[C@H](C)C(=O)O)cc3c2F)CC1 [Example 144, (2S,2′S)-4,4′-(((cyclopropane-1,1-diylbis-(methylene))bis (oxy))bis(4-fluoro-6-methoxybenzo[b]thiophene-5,2-diyl))bis(2-methyl-4-oxobutanoic acid)]	15	8	93			
COc1cc2cc(C(=O)C[C@H](C)C(=O)O)sc2cc1OCCCOc1ccc2cc(C(=O)CCC(=O)O)sc2c1 [Example 45, (S)-4-(6-(3-((2-(3-carboxypropanoyl)benzo[b]thiophen-6-yl)oxy)propoxy)-5-methoxybenzo[b]thiophen-2-yl)-2-methyl-4-oxobutanoic acid]	4330	8	14800			
COc1cc2sc(C[C@@H]3CC[C@H]3C(=O)O)cc2c(F)c1OCCCCOc1c(OC)cc2sc(C(=O)C[C@H](C)C(=O)O)cc2c1F [Example 136, 2-((5-(4-((2-((S)-3-carboxybutanoyl)-4-fluoro-6-methoxybenzo[b]thiophen-5-yl)oxy)butoxy)-4-fluoro-6-methoxybenzo[b]thiophen-2-yl)methyl)cyclo-butanecarboxylic acid]	314	37	10300			
COc1cc2sc(C(=O)C[C@H](C)C(=O)O)cc2cc1OCCOc1c(OC)cc2sc(C(=O)C[C@H](C)C(=O)O)cc2c1F [Example 67, (S)-4-(5-(2-((2-((S)-3-carboxybutanoyl)-4-fluoro-6-methoxybenzo[b]thiophen-5-yl)oxy)ethoxy)-6-methoxybenzo[b]thiophen-2-yl)-2-methyl-4-oxobutanoic acid]	40	92	45			
COc1cc2cc(C(=O)C[C@H](C)C(=O)O)sc2cc1OCCCOc1c(OC)cc2sc(C(=O)[C@@H]3C[C@H]3C(=O)O)cc2c1F [Example 90, trans-2-(5-(3-((2-((S)-3-carboxybutanoyl)-5-methoxybenzo[b]thiophen-6-yl)oxy)propoxy)-4-fluoro-6-methoxybenzo[b]thiophene-2-carbonyl)cyclopropane carboxylic acid]	58	125	978			
COc1cc2sc(C(=O)CCC(=O)O)cc2nc1CCOc1nc2cc(C(=O)CCC(=O)O)sc2cc1OC [Example 8, 4-(5-(2-(2-(3-carboxypropanoyl)-6-methoxythieno[3,2-b]pyridin-5-yl)ethoxy)-6-methoxythieno[3,2-b]pyridin-2-yl)-4-oxobutanoic acid]	12	99	76			
COc1cc2sc(CC[C@H](C)C(=O)O)cc2cc1OCCCOc1c(OC)cc2sc(C(=O)C[C@H](C)C(=O)O)cc2c1Br [Example 146, (S)-4-(4-bromo-5-(3-((2-((S)-3-carboxybutyl)-6-methoxybenzo[b]thiophen-5-yl)oxy)propoxy)-6-methoxybenzo[b]thiophen-2-yl)-2-methyl-4-oxobutanoic acid]				27	18	55
COc1cc2sc(C(=O)C[C@H](C)C(=O)O)cc2c(F)c1OCC(C)COc1c(OC)cc2sc(C(=O)C[C@H](C)C(=O)O)cc2c1F [Example 142, (2S,2′S)-4,4′-(((2-methylpropane-1,3-diyl)bis(oxy))bis(4-fluoro-6-methoxybenzo[b]thiophene-5,2-diyl))bis(2-methyl-4-oxobutanoic acid)]	1	81	1			
COc1cc2sc(C(=O)C[C@H](C)C(=O)O)cc2cc1OCCCOc1cc2sc(C(=O)C[C@H](C)C(=O)O)cc2cc1OC [Example 51]	3	43	8			
COc1cc2sc(C(=O)C[C@H](C)C(=O)O)cc2cc1CCCCc1cc2cc(C(=O)C[C@H](C)C(=O)O)sc2cc1OC [Example 1, (2S,2′S)-4,4′-[butane-1,4-diylbis(6-methoxy-1-benzothiene-5,2-diyl)]bis(2-methyl-4-oxobutanoic acid)]	6	26	117			
COc1cc2sc(C(=O)CCC(=O)O)cc2cc1OCCCOc1c(OC)cc2sc(C(=O)C[C@H](C)C(=O)O)cc2c1F [Example 39, (S)-4-(5-(3-((2-(3-carboxypropanoyl)-6-methoxybenzo [b]thiophen-5-yl)oxy)propoxy)-4-fluoro-6-methoxybenzo[b]thiophen-2-yl)-2-methyl-4-oxobutanoic acid]	1	75	2			
COc1cc2sc(C(=O)CCC(=O)O)cc2c(F)c1OCCCCCOc1c(OC)cc2sc(C(=O)CCC(=O)O)cc2c1F [Example 117, 4,4′-(5,5′-(pentane-1,5-diylbis(oxy))bis(4-fluoro-6-methoxybenzo[b]thiophene-5,2-diyl))bis(4-oxobutanoic acid)]	340	123	2640			
COc1cc2sc(C(=O)C[C@H](C)C(=O)O)cc2c(F)c1OCCCOc1c(O)cc2sc(C(=O)C[C@H](C)C(=O)O)cc2c1F [Example 188, (S)-4-(5-(3-((2-((S)-3-carboxybutanoyl)-4-fluoro-6-hydroxybenzo[b]thiophen-5-yl)oxy)propoxy)-4-fluoro-6-methoxybenzo[b]thiophen-2-yl)-2-methyl-4-oxobutanoic acid]	1		1	104		
